Literature values in US20250120404A1, “BOTANICAL PESTICIDE COMPOSITIONS” (Mosquito Squad Franchising SPE LLC, priority 2023, published 2025).

System: mosquitoes
Details: average reported toxicity from literature, concentration/biomass

Structure (SMILES)	Concentration of Oil Extract Necessary for Mosquito Death
CCC(=O)OCCc1ccccc1 [2-phenethyl proprionate]	Varying levels
C=CCc1ccc(O)c(OC)c1 [Eugenol]	Varying levels
CC(C)=CCC/C(C)=C/CO [Geraniol]	Varying levels
